How the values were obtained:
[1] = biological target: IAV HK/68 NA (whole virus) (Influenza A virus, UniProt Q91MA2); assay: biochemical; set-up: species or system influenza A virus A/Hong Kong/68 (H3N2); settings: for IC50: NA inhibition using FL assay IC50, IAV HK/68
[2] = biological target: T1, S. pneumoniae DSM20566 NA (NanA) (Streptococcus pneumoniae, UniProt P62575); assay: FL NA inhibition assay, S. pneumoniae DSM20566; type: biochemical; settings: MUNANA substrate; read-out: NA inhibition using FL assay IC50, S. p. DSM20566
T1 construct: host or cells: either rNanA from E. coli BL21(DE3) or total precipitated protein of S. pneumoniae DSM20566

IAV 5258/09 NA = assay: Hemagglutination (HA)-based NA inhibition assay, IAV 5258/09; type: cell-based, influenza A virus A/Jena/5258/2009 (H1N1); settings: human erythrocytes
[3] = biological target: T2, S. pneumoniae DSM20566 NA (Streptococcus pneumoniae, UniProt P62575); assay: HA-based NA inhibition assay, S. pneumoniae DSM20566; type: cell-based; settings: human erythrocytes
T2 construct: host or cells: either rNanA from E. coli BL21(DE3) or total precipitated protein of S. pneumoniae DSM20566

[4] = system: influenza A virus 8178/09; assay: microbe, parasite or virus in culture; type: cell-based, influenza A virus A/Jena/8178/2009 (H1N1)
influenza A virus WSN/33 = assay: microbe, parasite or virus in culture; type: cell-based, influenza A virus A/WSN/1933 (H1N1)
influenza A virus HK/68 = assay: microbe, parasite or virus in culture; type: cell-based, influenza A virus A/Hong Kong/68 (H3N2)
S. pneumoniae DSM20566 = assay: Microtiter broth microdilution assay, planktonic growth; type: cell-based, Streptococcus pneumoniae DSM20566; settings: 18 h, maximum 50 μM
[5] = system: S. pneumoniae DSM20566 biofilm; assay: Biofilm inhibition assay; type: cell-based, Streptococcus pneumoniae DSM20566; settings: 24 h, maximum 50 μM
human erythrocytes [6] = type: cell-based; settings: human erythrocytes, 2 h at 4°C
Experimental: (§1) Viral (whole virus) and bacterial NA activity as well as their inhibition were measured by using a fluorescence (FL) assay with the substrate 2′-(4-methylumbelliferyl)-α-D-N-acetylneuraminic acid sodium salt hydrate (MUNANA, 100 μM; Sigma-Aldrich GmbH, Taufkirchen, Germany), and/or a hemagglutination (HA)-based NA inhibition assay (HA assay) with human erythrocytes (Institute of Transfusion Medicine, University Hospital Jena, Jena, Germany), both assays as published recently (Richter et al., [2015]). Recombinant NanA (rNanA) and total precipitated bacterial protein of S. pneumoniae DSM20566 were used in FL and HA assays. Interference of the compounds with the FL signal (self-fluorescence and quenching) was excluded as described previously (Richter et al., [2015]). […] Each compound was tested at least three times in both NA inhibition assays.
Supplementary Table 1. Assay interference phenomena of test compounds in the HA-based […]
sample concentrations [µM] in viral HA-assay bacterial HA-assay […]
hem- prevention of erythrocyte hem- erythrocyte agglutinationa virus-induced lysisc agglutinationd lysise […]
cTest compounds lysed the human erythrocytes (2 h at 4°C). […]

human erythrocytes [7] = type: cell-based; settings: human erythrocytes, 4 h at 37°C and 12 h at 4°C
Experimental: as §1
Supplementary Table 1. […]
eTest compounds lysed the human erythrocytes (4 h at 37°C and 12 h at 4°C).

in vitro = settings: dog
[8] = biological target: IAV WSN/33 NA-wt (whole virus) (Influenza A virus, UniProt P03470); assay: biochemical; set-up: species or system influenza A virus A/WSN/1933 (H1N1); settings: for IC50: NA inhibition using FL assay IC50, IAV WSN/33
Chain of IAV WSN/33 NA-wt (whole virus) (P03470 whole entry, looked up): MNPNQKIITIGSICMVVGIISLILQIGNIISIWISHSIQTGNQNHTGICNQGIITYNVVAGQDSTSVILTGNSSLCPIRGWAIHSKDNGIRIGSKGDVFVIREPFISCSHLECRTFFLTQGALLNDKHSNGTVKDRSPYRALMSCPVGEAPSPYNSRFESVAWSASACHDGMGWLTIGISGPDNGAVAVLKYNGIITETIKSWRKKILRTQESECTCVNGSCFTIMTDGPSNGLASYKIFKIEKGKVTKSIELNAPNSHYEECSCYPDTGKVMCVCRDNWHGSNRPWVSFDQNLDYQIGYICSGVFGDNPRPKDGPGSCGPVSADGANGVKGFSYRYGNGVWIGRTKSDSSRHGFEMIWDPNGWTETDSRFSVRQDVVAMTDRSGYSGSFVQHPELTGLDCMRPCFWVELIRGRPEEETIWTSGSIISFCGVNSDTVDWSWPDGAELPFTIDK

Chain of IAV HK/68 NA (whole virus) (Q91MA2 whole entry, looked up): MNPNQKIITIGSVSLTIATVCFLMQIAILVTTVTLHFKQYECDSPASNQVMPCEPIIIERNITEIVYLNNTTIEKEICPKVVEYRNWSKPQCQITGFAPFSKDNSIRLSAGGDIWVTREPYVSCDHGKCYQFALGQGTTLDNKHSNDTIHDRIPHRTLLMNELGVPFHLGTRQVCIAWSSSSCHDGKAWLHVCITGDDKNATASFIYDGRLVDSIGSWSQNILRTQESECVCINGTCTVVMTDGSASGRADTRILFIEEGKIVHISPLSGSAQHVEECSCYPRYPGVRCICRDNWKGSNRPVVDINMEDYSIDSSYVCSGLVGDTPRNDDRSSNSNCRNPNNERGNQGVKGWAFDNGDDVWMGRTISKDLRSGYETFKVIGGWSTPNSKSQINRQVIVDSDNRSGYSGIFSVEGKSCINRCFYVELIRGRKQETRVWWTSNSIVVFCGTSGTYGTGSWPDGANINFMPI
T1 sequence (P62575 54-1035): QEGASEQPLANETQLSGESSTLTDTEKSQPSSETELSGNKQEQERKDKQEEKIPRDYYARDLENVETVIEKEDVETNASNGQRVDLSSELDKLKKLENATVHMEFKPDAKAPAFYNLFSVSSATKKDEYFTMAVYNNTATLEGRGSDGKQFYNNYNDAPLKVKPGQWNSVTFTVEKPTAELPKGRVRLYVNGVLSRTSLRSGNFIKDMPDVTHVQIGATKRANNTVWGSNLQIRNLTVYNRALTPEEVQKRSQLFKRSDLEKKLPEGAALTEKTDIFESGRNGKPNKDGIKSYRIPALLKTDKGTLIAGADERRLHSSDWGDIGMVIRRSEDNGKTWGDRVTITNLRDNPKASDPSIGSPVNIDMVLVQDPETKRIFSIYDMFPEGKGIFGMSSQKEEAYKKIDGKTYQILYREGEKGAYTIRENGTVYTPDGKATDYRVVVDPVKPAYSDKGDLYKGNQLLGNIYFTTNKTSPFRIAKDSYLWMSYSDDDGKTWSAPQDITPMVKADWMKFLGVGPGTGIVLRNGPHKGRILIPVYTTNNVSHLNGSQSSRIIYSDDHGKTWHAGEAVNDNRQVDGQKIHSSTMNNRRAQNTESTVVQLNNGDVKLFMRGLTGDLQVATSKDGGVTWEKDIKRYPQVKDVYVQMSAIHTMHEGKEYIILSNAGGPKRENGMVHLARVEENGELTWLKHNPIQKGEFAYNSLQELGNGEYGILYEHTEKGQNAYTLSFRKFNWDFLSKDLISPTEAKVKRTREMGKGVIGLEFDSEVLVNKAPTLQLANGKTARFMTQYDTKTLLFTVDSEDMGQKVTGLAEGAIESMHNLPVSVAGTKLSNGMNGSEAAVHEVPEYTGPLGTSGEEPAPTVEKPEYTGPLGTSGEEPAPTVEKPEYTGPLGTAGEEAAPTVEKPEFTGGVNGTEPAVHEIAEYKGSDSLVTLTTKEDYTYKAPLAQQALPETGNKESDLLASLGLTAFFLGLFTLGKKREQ
T2 sequence (P62575 54-1035): as above

SMILES	IC50 [1]	IC50 [2]	NA inhibition using HA assay MIC, IAV 5258/09 (IAV 5258/09 NA)	NA inhibition using HA assay MIC, S. p. DSM20566 [3]	50% inhibitory concentration, influenza A virus 8178/09 [4]	50% inhibitory concentration, influenza A virus WSN/33 (influenza A virus WSN/33)	50% inhibitory concentration, influenza A virus HK/68 (influenza A virus HK/68)	50% inhibitory concentration, S. pneumoniae DSM20566 planktonic growth (S. pneumoniae DSM20566)	IC50 ([5]; Streptococcus pneumoniae, DSM20566, read-out: 50% inhibitory concentration, S. pneumoniae DSM20566 biofilm formation)	sample concentrations provoking erythrocyte lysis, viral HA-assay (human erythrocytes [6])	sample concentrations provoking erythrocyte lysis, bacterial HA-assay (human erythrocytes [7])	CC50 (in vitro)	IC50 [8]	NA inhibition using FL assay IC50, IAV HK/68 [1]	50% inhibitory concentration, S. pneumoniae DSM20566 biofilm formation [5]	NA inhibition using FL assay IC50, IAV WSN/33 [8]
Cc1ccccc1/N=N/c1ccc(/N=N/c2c(O)ccc3cc(S(=O)(=O)O)cc(S(=O)(=O)O)c23)c(C)c1 [Compound 5]	17.8 ± 3.25 µM	0.97 ± 0.3 µM	10.00 ± 0.00 µM	2.44 ± 1.25 µM	Not active	Not active	Not active	Not active	42.2 ± 2.57 µM	no	no	> 100 µM	–	–	–	–
COc1cc(/N=N/c2ccc(S(=O)(=O)O)cc2)ccc1/N=N/c1c(O)ccc2cc(S(=O)(=O)O)ccc12 [Compound 8]	–	3.9 ± 0.51 µM	Not active	Not active	Not active	Not active	Not active	Not active	–	no	no	> 100 µM	6.51 ± 0.72 µM	Not active	Not active	–
O=S(=O)(O)c1ccc(/N=N/c2ccc(/N=N/c3c(O)c(S(=O)(=O)O)cc4cc(S(=O)(=O)O)ccc34)cc2)cc1 [Compound 9]	–	32 ± 10.9 µM	Not active	Not active	Not active	Not active	Not active	Not active	–	no	no	> 100 µM	22.7 ± 2.91 µM	Not active	Not active	–
O=S(=O)(O)c1ccc2c(/N=N/c3ccccc3)c(O)ccc2c1 [Compound 10]	–	10.2 ± 1.35 µM	Not active^c	Not active^c	Not active	Not active	Not active	Not active	–	no	no	> 100 µM	–	Not active	Not active	Not active
O=[N+]([O-])c1ccc(/N=N/c2c(O)ccc3cc(S(=O)(=O)O)ccc23)cc1 [Compound 11]	77.3 ± 10.6 µM	23.2 ± 13.1 µM	Not active	Not active	Not active	Not active	Not active	Not active	–	no	no	> 100 µM	33.1 ± 4.6 µM	–	Not active	–

Reference: publication PMC5309245, “Discovery and Characterization of Diazenylaryl Sulfonic Acids as Inhibitors of Viral and Bacterial Neuraminidases” (Frontiers in Microbiology, 2017)
